US10987349B2, “Antitumor agent and bromodomain inhibitor” (FUJIFILM Corporation, priority 2016, dated 2021)

What was measured:
BRD4 BD2 = biological target: T1, BRD4 BD2 (Homo sapiens, UniProt O60885); test: Binding assay, BRD4 BD2 to acetylated histone H4 Peptide-Biotin (EPIgeneous Binding Domain Kit B); settings: test compound at 300 nmol/L; read-out: Binding inhibition percentage BRD4 BD2
T1 construct: BRD2 BD2, BRD3 BD2 and BRD4 BD2 (Cisbio); purchased Cisbio
Description: (§1) Moreover, BRD2 BD2, BRD3 BD2 and BRD4 BD2 (Cisbio), Peptide-Biotin (AnaSpec), and EPIgeneous (registered trademark) Binding Domain Kit B (Cisbio) were used to carry out an assay. That is, per well, 4 μL of BRD2 BD2, BRD3 BD2 or BRD4 BD2, which was adjusted to 20 nmol/L with Diluent buffer; 4 μL of 250 nmol/L Peptide-Biotin; 2 μL of Dilution buffer (Cisbio) containing DMSO or a test compound that was serially diluted with DMSO; 5 μL of 25 nmol/L Streptavidin-XL665; 5 μL of Anti-Gst-Eu+^3+ Cryptate Conjugate 50-fold diluted with Detection Buffer were added to a 384-well plate (Corning).
(§2) The obtained mixture was left at rest at room temperature for 20 hours, and thereafter, the fluoresence intensity at 665 nm and 620 nm was measured using Envision plate reader (Perkin Elmer), so that the inhibition percentage (%) of the test compound against the binding of a bromodomain in a bromodomain-containing protein to Peptide-Biotin was calculated. Binding inhibition percentage (%)=[1−{(fluorescence intensity at 665 nm of test compound−added well)/(fluorescence intensity at 620 nm of test compound−added well)}/{(fluorescence intensity at 665 nm of DMSO−added well)/(fluorescence intensity at 665 nm of DMSO−added well)}]×100
(§3) Moreover, using Graphpad prism 5 (GraphPad software), 50% inhibitory concentration [IC50 (nmol/L)] was calculated according to a non-linear regression analysis (log (inhibitor) vs. response—Variable slope (four parameters)).
(§4) Regarding other test compounds, each compound was diluted with DMSO to a final concentration of 300 nmol/L by the same method as that described above, and the binding inhibition percentage (%) of each test compound at 300 nmol/L against the binding of bromodomain in a bromodomain-containing protein to acetylated histone was calculated.

BRD2 BD1 = biological target: T2, BRD2 BD1 (Homo sapiens, UniProt P25440); test: Binding assay, BRD2 BD1 to acetylated histone H4 Peptide-Biotin (EPIgeneous Binding Domain Kit A); settings: test compound at 300 nmol/L; read-out: Binding inhibition percentage BRD2 BD1
T2 construct: BRD2 BD1, BRD3 BD1 and BRD4 BD1 (Cisbio); purchased Cisbio
T2 sequence (P25440 74-180 limits assumed): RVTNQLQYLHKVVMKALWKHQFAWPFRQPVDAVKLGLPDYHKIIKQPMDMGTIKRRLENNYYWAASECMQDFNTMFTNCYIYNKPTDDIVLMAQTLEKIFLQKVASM
Description: (§5) BRD2 BD1, BRD3 BD1 and BRD4 BD1 (Cisbio), [Lys(Ac)5/8/12/16]-Histone H4(1-25)-GSGSK (Biotin) (hereinafter referred to as “Peptide-Biotin,” AnaSpec), and EPIgeneous (registered trademark) Binding Domain Kit A (Cisbio) were used to carry out an assay. That is to say, per well, 4 μL of BRD2 BD1, BRD3 BD1 or BRD4 BD1, which was adjusted to 20 nmol/L with Diluent buffer; 4 μL of 25 nmol/L Peptide-Biotin; 2 μL of Dilution buffer (Cisbio) containing dimethyl sulfoxide (DMSO) or a test compound that was serially diluted with DMSO; 5 μL of 2.5 nmol/L Streptavidin-d2; and 5 μL of Anti-Gst-Eu+^3+ Cryptate Conjugate 50-fold diluted with Detection Buffer were added to a 384-well plate (Corning).
as §2, §3, §4

BRD2 BD2 = biological target: T3, BRD2 BD2 (Homo sapiens, UniProt P25440); test: Binding assay, BRD2 BD2 to acetylated histone H4 Peptide-Biotin (EPIgeneous Binding Domain Kit B); settings: test compound at 300 nmol/L; read-out: Binding inhibition percentage BRD2 BD2
T3 construct: BRD2 BD2, BRD3 BD2 and BRD4 BD2 (Cisbio); purchased Cisbio
T3 sequence (P25440 344-453 limits assumed): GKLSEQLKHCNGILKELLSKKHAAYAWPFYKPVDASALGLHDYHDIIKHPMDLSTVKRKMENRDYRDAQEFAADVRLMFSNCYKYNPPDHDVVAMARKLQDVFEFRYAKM
Description: as §1, §2, §3, §4

BRD4 BD1 = biological target: T4, BRD4 BD1 (Homo sapiens, UniProt O60885); test: Binding assay, BRD4 BD1 to acetylated histone H4 Peptide-Biotin (EPIgeneous Binding Domain Kit A); settings: test compound at 300 nmol/L; read-out: Binding inhibition percentage BRD4 BD1
T4 construct: BRD2 BD1, BRD3 BD1 and BRD4 BD1 (Cisbio); purchased Cisbio
Description: as §5, §2, §3, §4

BRD3 BD2 = biological target: T5, BRD3 BD2 (Homo sapiens, UniProt Q15059); test: Binding assay, BRD3 BD2 to acetylated histone H4 Peptide-Biotin (EPIgeneous Binding Domain Kit B); settings: test compound at 300 nmol/L; read-out: Binding inhibition percentage BRD3 BD2
T5 construct: BRD2 BD2, BRD3 BD2 and BRD4 BD2 (Cisbio); purchased Cisbio
T5 sequence (Q15059 306-415 limits assumed): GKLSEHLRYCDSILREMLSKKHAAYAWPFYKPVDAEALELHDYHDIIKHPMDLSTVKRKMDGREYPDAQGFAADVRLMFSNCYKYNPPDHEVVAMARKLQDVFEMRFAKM
Description: as §1, §2, §3, §4

BRD3 BD1 = biological target: T6, BRD3 BD1 (Homo sapiens, UniProt Q15059); test: Binding assay, BRD3 BD1 to acetylated histone H4 Peptide-Biotin (EPIgeneous Binding Domain Kit A); settings: test compound at 300 nmol/L; read-out: Binding inhibition percentage BRD3 BD1
T6 construct: BRD2 BD1, BRD3 BD1 and BRD4 BD1 (Cisbio); purchased Cisbio
T6 sequence (Q15059 34-140 limits assumed): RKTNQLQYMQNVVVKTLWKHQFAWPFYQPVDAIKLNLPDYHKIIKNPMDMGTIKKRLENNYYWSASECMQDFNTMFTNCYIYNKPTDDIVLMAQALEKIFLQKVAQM
Description: as §5, §2, §3, §4

| Structure (SMILES) | inhibition at 0.3 µM (BRD4 BD2) | inhibition at 0.3 µM (BRD2 BD1) | inhibition at 0.3 µM (BRD2 BD2) | inhibition at 0.3 µM (BRD4 BD1) | inhibition at 0.3 µM (BRD3 BD2) | inhibition at 0.3 µM (BRD3 BD1) |
| --- | --- | --- | --- | --- | --- | --- |
| CCn1c(=O)cc(N2CCOCC2)c2cc(-n3c(-c4ccc(C(F)(F)F)cc4)c[nH]c3=O)ccc21 [Example 272, 1-ethyl-6-(2-oxo-5-(4-(trifluoromethyl)phenyl)-2,3-dihydro-1H-imidazol-1-yl)-4-(morpholin-4-yl)quinolin-2(1H)-one] | 90% | 87% | 89% | 93% | 91% | 93% |
| CCn1c(=O)cc(C2CC2)c2cc(-c3cccnc3-c3ccccc3)ccc21 [Example 278, 4-cyclopropyl-1-ethyl-6-(2-phenylpyridin-3-yl)quinolin-2(1H)-one] | 89% | 83% | 89% | 93% | 91% | 94% |
| CCn1c(=O)cc(C2CC2)c2cc(-n3c(-c4ccc(C(F)(F)F)cc4)cn(C)c3=O)ccc21 [Example 267, 4-cyclopropyl-1-ethyl-6-(3-methyl-2-oxo-5-(4-(trifluoromethyl)phenyl)-2,3-dihydro-1H-imidazol-1-yl)quinolin-2(1H)-one] | 87% | 32% | 87% | 68% | 90% | 53% |
| CCn1c(=O)cc(C2CC2)c2cc(-n3c(-c4ccc(C(F)(F)F)cc4)c[nH]c3=O)ccc21 [Example 268, 4-cyclopropyl-1-ethyl-6-(2-oxo-5-(4-(trifluoromethyl)phenyl)-2,3-dihydro-1H-imidazol-1-yl)quinolin-2(1H)-one] | 87% | 48% | 86% | 73% | 92% | 62% |
| CCn1c(=O)cc(N2CCOCC2)c2cc(-c3cccnc3-c3ccccc3)ccc21 [Example 279, 1-ethyl-4-(morpholin-4-yl)-6-(2-phenylpyridin-3-yl)quinolin-2(1H)-one] | 89% | 91% | 88% | 93% | 91% | 93% |

Results, then the compound that gave them:

| inhibition at 0.3 µM (BRD4 BD2) | inhibition at 0.3 µM (BRD2 BD1) | inhibition at 0.3 µM (BRD2 BD2) | inhibition at 0.3 µM (BRD4 BD1) | inhibition at 0.3 µM (BRD3 BD2) | inhibition at 0.3 µM (BRD3 BD1) | Structure (SMILES) |
| --- | --- | --- | --- | --- | --- | --- |
| 85% | 93% | 81% | 95% | 87% | 94% | CCn1c(=O)cc(C2CCN(C)CC2)c2cc(C(=O)N(C)c3ccc(C)c(F)c3)ccc21 [Example 292, 1-ethyl-N-(3-fluoro-4-methylphenyl)-N-methyl-4-(1-methylpiperidin-4-yl)-2-oxo-1,2-dihydroquinoline-6-carboxamide] |
| 89% | 93% | 90% | 94% | 93% | 94% | CCn1c(=O)cc(N2CCOCC2)c2cc(-n3c(-c4ccc(C)cc4)cn(C)c3=O)ccc21 [Example 273, 1-ethyl-6-(3-methyl-5-(4-methylphenyl)-2-oxo-2,3-dihydro-1H-imidazol-1-yl)-4-(morpholin-4-yl)quinolin-2(1H)-one] |
| 88% | 44% | 87% | 70% | 92% | 79% | CCn1c(=O)cc(C(C)C)c2cc(N(C)C(=O)c3ccc(Cl)cc3)ccc21 [Example 16, 4-Chloro-N-(1-ethyl-2-oxo-4-(propan-2-yl)-1,2-dihydroquinolin-6-yl)-N-methylbenzamide] |
| 88% | 93% | 88% | 95% | 92% | 94% | CCn1c(=O)cc(C2CCN(CCO)CC2)c2cc(C(=O)N(C)c3ccc4c(c3)CCCC4)ccc21 [Example 179, 1-ethyl-4-(1-(2-hydroxyethyl)piperidin-4-yl)-N-methyl-2-oxo-N-(5,6,7,8-tetrahydronaphthalen-2-yl)-1,2-dihydroquinoline-6-carboxamide] |
